Test results taken from PubChem BioAssay (NCI).
“And” between values parts separate entries of the source, which are not always exact repeats. Identical values can stand only once.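 Where inhibition never reached the appropriate level, the endpoint shown equals the highest concentration tested. Otherwise, values were interpolated linearly from a five-concentration, 48-hour dose response in 96-well plates. Here, GI50 denotes the concentration required for 50% inhibition of growth. TGI is the concentration that stops growth completely.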

How the values were obtained:
Assay in all cases: NCI anticancer screen, dose series, 48 h
KM12 colon = test system: KM12 colon
DU-145 prostate = test system: DU-145 prostate
HCT-15 colon = test system: HCT-15 colon
NCI-H460 lung = test system: NCI-H460 lung
OVCAR-3 ovarian = test system: OVCAR-3 ovarian
CCRF-CEM leukemia = test system: CCRF-CEM leukemia
OVCAR-5 ovarian = test system: OVCAR-5 ovarian
TK-10 renal = test system: TK-10 renal
COLO 205 colon = test system: COLO 205 colon
MDA-MB-231 breast = test system: MDA-MB-231 breast

| Compound | TGI (KM12 colon) | TGI (DU-145 prostate) | TGI (HCT-15 colon) [µM] | TGI (NCI-H460 lung) | TGI (OVCAR-3 ovarian) | TGI (CCRF-CEM leukemia) [µM] | TGI (OVCAR-5 ovarian) [µM] | TGI (TK-10 renal) [µM] | TGI (COLO 205 colon) | TGI (MDA-MB-231 breast) [µM] | GI50 (NCI-H460 lung) | GI50 (CCRF-CEM leukemia) | GI50 (COLO 205 colon) |
| --- | --- | --- | --- | --- | --- | --- | --- | --- | --- | --- | --- | --- | --- |
| O=C(O)C1C2CCC(C2)C1c1ccccc1 (configuration not stated) | > 100 µM | > 100 µM | > 100 | > 100 µM | > 100 µM | > 100 | > 100 | > 100 | > 100 µM | > 100 |  |  |  |
| CN(c1ccccc1Cl)S(=O)(=O)c1ccccc1 | > 100 µM | > 100 µM | > 100 | > 100 µM | > 100 µM | > 100 | > 100 | > 100 | > 100 µM | > 100 |  |  |  |
| CC1(C)N=C(/C(C#N)=[N+](/[O-])C(=O)c2ccccc2)C(C)(C)N1O | > 100 µM | > 100 µM | > 100 | > 100 µM | > 100 µM | > 100 | > 100 | > 100 | > 100 µM | > 100 |  |  |  |
| O=C(O)c1ccc(/C=N\N(CCO)C2=NCCN2)cc1 | > 100 µM | > 100 µM | > 100 | > 100 µM | > 100 µM | > 100 | > 100 | > 100 | > 100 µM | > 100 |  |  |  |
| COC(=O)Nc1nc2ccc(NS(=O)(=O)c3ccc(F)cc3)cc2[nH]1 | 74.7 µM | > 100 µM | > 100 | > 100 µM | 16.2 µM | > 100 | > 100 | 87 | 37.8 µM | > 100 |  |  |  |
| C=CC[C@@]1(C#N)C[C@H](C[C@]2(C#N)C[C@H](CCl)OC(C)(C)O2)OC(C)(C)O1 | > 100 µM |  | > 100 | > 100 µM | > 100 µM | > 100 | > 100 | > 100 | > 100 µM |  |  |  |  |
| C[N+](C)(N)Cc1csc(-c2ccc(Cl)cc2)n1 | > 100 µM | > 100 µM | > 100 | > 100 µM | > 100 µM |  | > 100 | > 100 | > 100 µM | > 100 |  |  |  |
| O=C(O)C1(CC(CCCN2CCCCC2)c2ccccc2)CCCC1 (configuration not stated) | > 100 µM | > 100 µM | > 100 | > 100 µM | > 100 µM | > 100 | > 100 | > 100 | > 100 µM | > 100 |  |  |  |
| CC[C@@]1(O)C(=O)OCc2c1cc1n(c2=O)Cc2c-1nc1ccccc1c2/C=N\NC(=O)C(N)=O | > 100 µM | 10.9 µM | > 100 | 29.9 µM | > 100 µM |  | > 100 | > 100 | > 100 µM | > 100 |  |  |  |
| COc1ccc(-c2c(C(C)=O)c(-c3ccccc3)n(C3OC(COC(C)=O)C(OC(C)=O)C(OC(C)=O)C3OC(C)=O)c(=S)c2C#N)cc1O (configuration not stated) | 56.6 µM and > 100 µM | 94.3 µM and > 100 µM | > 100 | 37.4 µM and > 100 µM | 41 µM and > 100 µM | > 100 | > 100 |  | 57.5 µM and > 100 µM |  | 10.8 µM and 43.5 µM | 23.6 µM and 70.2 µM | 21 µM and 47.7 µM |
